These results are taken from ChEMBL document CHEMBL5465560, “Selectivity Literature for EUbOPEN Chemogenomic Library” (2024).

The target in assay [1] is T1, Dual specificity tyrosine-phosphorylation-regulated kinase 2 (Homo sapiens) (UniProt Q92630).
T1 sequence (whole entry): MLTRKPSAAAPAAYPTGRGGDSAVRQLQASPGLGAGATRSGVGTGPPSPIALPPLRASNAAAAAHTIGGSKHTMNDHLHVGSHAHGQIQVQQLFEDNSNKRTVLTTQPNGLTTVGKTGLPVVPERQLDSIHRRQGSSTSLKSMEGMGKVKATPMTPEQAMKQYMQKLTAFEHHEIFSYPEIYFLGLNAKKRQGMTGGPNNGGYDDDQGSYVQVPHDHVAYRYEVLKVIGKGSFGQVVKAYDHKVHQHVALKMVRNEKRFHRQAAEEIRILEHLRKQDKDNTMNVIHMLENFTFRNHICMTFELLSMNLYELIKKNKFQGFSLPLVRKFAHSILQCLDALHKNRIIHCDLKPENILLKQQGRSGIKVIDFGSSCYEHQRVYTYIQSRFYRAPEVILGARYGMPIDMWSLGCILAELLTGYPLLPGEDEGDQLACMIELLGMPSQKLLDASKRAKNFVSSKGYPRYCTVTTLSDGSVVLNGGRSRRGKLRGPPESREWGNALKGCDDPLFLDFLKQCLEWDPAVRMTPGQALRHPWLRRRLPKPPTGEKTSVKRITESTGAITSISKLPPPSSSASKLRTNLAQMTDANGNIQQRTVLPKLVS
In words: Selectivity interaction (LanthaScreen Eu Kinase Binding Assay) EUB0001632a DYRK2. The settings on record: at 10 µM. For orientation: In TR-FRET formats the signal depends on donor and acceptor labels being close together.

For assay [2], the system named is Epidermal growth factor receptor (Homo sapiens), P00533 [UNDEFINED MUTATION]. Briefly: Selectivity interaction (LanthaScreen Eu Kinase Binding Assay) EUB0001632a EGFR. The settings on record: at 10 µM.
Epidermal growth factor receptor (Homo sapiens), P00533 [UNDEFINED MUTATION], sequence (P00533 whole entry, looked up, change not shown): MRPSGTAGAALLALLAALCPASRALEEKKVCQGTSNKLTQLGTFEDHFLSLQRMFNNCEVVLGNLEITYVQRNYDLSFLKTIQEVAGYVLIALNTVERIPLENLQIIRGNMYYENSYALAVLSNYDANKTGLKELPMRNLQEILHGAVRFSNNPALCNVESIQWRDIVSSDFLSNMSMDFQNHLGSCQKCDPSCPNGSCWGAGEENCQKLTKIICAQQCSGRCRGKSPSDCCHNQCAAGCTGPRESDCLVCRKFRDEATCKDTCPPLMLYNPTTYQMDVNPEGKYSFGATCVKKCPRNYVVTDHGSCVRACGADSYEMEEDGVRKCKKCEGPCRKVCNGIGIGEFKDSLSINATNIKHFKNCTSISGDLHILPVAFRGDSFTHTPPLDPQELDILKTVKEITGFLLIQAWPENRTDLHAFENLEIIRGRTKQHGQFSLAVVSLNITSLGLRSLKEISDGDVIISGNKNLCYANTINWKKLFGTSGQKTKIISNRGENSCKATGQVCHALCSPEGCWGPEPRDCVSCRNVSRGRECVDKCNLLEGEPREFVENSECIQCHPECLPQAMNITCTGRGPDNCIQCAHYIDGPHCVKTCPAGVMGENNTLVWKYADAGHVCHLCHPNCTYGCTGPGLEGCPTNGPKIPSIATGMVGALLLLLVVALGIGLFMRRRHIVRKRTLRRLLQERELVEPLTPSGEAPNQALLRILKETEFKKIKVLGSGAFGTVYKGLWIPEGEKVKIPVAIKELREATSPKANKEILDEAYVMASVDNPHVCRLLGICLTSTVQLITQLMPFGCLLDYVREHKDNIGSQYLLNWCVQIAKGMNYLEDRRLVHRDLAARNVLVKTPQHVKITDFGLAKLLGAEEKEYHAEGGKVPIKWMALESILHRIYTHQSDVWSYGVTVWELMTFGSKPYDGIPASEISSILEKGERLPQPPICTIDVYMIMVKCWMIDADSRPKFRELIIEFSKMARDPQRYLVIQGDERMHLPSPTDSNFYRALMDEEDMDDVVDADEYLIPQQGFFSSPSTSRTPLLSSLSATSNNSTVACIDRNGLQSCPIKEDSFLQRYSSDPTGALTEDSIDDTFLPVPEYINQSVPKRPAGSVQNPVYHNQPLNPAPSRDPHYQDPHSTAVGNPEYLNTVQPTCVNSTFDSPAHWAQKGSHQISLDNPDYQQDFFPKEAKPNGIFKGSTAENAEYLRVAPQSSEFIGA
Assay [3] deals with Cell division control protein 42 homolog (Homo sapiens) (UniProt P60953). In words: Selectivity interaction (SelectScreen profiling (Invitrogen)) EUB0000607a CDC42. The settings on record: at 2 µM.
Cell division control protein 42 homolog (Homo sapiens), sequence (P60953 whole entry, looked up): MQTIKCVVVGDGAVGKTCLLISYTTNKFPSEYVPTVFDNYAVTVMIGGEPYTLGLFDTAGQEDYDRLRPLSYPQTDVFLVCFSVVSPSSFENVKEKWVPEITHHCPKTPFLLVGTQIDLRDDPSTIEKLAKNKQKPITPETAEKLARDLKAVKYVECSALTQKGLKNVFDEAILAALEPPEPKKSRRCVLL
The target of assay [4] is Tyrosine-protein kinase Srms (Homo sapiens) (UniProt Q9H3Y6). In words: Selectivity interaction (KinomeScan (DiscoverX)) EUB0000607a SRMS. The settings on record: at 10 µM.
Tyrosine-protein kinase Srms (Homo sapiens), sequence (Q9H3Y6 whole entry): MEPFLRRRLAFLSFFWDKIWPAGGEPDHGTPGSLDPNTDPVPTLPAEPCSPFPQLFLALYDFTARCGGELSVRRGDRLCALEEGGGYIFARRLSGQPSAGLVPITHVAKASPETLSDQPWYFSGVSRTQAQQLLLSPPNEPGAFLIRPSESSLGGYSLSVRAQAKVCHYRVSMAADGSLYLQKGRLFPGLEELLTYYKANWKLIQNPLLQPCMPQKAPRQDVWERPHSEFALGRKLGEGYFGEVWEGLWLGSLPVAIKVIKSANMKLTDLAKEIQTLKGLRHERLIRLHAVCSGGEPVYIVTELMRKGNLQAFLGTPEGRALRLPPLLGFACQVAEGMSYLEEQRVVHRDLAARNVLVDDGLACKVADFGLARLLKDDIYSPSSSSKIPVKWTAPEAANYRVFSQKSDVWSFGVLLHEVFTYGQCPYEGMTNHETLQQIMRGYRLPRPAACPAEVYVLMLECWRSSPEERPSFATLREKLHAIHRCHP
The subject of assay [5] is Tyrosine-protein kinase ABL1 (Homo sapiens), P00519 [E255K]. The settings on record: at 10 µM.
In assay [6] the target is Serine/threonine-protein kinase RIO2 (Homo sapiens) (UniProt Q9BVS4). In words: Selectivity interaction (KinomeScan (DiscoverX)) EUB0000655a RIOK2. The settings on record: at 10 µM.
Serine/threonine-protein kinase RIO2 (Homo sapiens), sequence (Q9BVS4 whole entry, looked up): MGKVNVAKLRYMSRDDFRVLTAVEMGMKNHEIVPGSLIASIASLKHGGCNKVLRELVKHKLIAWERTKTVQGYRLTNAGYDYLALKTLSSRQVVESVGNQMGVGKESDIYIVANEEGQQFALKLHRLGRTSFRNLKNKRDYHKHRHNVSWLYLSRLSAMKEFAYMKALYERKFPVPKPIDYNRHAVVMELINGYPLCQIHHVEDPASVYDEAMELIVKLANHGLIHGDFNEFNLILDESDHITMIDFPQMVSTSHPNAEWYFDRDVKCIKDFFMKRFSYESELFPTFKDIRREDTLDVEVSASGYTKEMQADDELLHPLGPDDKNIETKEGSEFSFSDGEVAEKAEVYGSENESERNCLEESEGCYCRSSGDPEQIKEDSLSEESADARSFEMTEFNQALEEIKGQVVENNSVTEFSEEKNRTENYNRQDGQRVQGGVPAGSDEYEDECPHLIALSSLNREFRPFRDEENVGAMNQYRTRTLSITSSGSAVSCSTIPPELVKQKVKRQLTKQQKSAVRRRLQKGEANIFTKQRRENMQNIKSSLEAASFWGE
The target of assay [7] is Calcium/calmodulin-dependent protein kinase type II subunit gamma (Homo sapiens) (UniProt Q13555). In words: Selectivity interaction (KinomeScan (DiscoverX)) EUB0001619a CAMK2G. The settings on record: at 1 µM.
Calcium/calmodulin-dependent protein kinase type II subunit gamma (Homo sapiens), sequence (Q13555 whole entry): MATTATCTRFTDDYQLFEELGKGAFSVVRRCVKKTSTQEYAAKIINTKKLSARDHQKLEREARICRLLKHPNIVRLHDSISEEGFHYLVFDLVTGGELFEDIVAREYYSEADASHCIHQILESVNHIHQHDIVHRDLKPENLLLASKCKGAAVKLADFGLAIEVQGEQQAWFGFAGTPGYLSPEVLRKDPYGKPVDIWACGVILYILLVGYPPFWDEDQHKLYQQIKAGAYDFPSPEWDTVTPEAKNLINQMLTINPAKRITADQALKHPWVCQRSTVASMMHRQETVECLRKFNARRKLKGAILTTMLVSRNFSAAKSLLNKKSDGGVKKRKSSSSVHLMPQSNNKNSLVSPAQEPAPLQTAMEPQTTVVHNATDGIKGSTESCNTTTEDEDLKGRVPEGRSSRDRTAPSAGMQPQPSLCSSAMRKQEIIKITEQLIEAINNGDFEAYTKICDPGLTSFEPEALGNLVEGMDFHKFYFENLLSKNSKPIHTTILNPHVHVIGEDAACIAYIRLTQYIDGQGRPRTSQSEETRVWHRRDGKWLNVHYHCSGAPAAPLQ
For assay [8], the target named is T2, Tyrosine-protein kinase ZAP-70 (Homo sapiens) (UniProt P43403).
T2 sequence (whole entry): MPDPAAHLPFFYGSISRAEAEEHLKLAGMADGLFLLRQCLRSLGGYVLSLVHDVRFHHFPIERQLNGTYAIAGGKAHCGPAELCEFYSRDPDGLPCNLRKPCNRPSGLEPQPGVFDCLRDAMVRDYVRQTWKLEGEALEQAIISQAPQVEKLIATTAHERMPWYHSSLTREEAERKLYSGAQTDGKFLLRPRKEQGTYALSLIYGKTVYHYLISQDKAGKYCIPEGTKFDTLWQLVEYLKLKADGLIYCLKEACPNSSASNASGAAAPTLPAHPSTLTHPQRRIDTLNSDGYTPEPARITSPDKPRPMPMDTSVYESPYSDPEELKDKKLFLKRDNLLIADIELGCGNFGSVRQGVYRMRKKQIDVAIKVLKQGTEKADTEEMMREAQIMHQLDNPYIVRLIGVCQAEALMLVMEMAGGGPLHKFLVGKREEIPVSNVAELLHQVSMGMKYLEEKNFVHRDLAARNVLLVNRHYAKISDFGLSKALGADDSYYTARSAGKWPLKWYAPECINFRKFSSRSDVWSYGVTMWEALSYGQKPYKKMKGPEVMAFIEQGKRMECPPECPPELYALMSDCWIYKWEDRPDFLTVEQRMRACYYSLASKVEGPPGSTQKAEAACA
Briefly: Selectivity interaction (ActivX KiNativ screen (ex vivo kinase selectivity in human PBMCs)) EUB0001619a ZAP70. It is filed as cell-based. The settings on record: PBMC, at 1 µM.

Assay [9] addresses T3, Mitogen-activated protein kinase 15 (Homo sapiens) (UniProt Q8TD08).
T3 sequence (whole entry): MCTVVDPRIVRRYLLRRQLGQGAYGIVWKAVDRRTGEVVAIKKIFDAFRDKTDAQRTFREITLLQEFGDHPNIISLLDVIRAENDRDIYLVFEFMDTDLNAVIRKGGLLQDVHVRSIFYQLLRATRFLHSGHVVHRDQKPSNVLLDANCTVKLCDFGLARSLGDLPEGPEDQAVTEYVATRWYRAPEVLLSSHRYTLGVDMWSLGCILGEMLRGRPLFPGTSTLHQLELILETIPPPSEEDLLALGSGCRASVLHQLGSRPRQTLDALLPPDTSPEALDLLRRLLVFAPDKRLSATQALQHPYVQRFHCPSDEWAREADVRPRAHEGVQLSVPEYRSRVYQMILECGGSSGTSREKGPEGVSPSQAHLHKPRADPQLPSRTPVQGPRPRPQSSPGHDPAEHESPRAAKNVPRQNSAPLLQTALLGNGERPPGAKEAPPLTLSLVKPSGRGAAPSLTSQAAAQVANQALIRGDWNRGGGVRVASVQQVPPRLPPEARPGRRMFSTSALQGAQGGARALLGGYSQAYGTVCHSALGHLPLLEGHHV
In words: Selectivity interaction (KinomeScan (DiscoverX)) EUB0000695a MAPK15. The settings on record: at 100 nM.

Assay [10] deals with T4, Serine/threonine-protein kinase 17A (Homo sapiens) (UniProt Q9UEE5).
T4 sequence (whole entry): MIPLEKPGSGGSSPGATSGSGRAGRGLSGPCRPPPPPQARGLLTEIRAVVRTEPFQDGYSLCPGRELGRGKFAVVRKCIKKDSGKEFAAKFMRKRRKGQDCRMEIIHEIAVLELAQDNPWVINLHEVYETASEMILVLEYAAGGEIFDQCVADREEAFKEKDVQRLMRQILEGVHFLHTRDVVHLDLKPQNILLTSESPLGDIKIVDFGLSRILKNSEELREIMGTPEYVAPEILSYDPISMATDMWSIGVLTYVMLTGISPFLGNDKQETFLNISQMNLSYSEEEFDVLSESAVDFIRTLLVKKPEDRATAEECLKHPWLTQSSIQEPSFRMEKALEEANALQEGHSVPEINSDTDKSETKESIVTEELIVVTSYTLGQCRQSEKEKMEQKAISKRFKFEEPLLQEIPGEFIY
Briefly: Selectivity interaction (KinomeScan (DiscoverX)) EUB0000618a STK17A. The settings on record: at 10 µM.

For assay [11], the target named is Tyrosine-protein kinase BTK (Homo sapiens, UniProt Q06187). In words: Selectivity interaction (Upstate Kinase Profiler service (Millipore)) EUB0000056c BTK. The settings on record: at 1 µM.
Tyrosine-protein kinase BTK, sequence (Q06187 whole entry): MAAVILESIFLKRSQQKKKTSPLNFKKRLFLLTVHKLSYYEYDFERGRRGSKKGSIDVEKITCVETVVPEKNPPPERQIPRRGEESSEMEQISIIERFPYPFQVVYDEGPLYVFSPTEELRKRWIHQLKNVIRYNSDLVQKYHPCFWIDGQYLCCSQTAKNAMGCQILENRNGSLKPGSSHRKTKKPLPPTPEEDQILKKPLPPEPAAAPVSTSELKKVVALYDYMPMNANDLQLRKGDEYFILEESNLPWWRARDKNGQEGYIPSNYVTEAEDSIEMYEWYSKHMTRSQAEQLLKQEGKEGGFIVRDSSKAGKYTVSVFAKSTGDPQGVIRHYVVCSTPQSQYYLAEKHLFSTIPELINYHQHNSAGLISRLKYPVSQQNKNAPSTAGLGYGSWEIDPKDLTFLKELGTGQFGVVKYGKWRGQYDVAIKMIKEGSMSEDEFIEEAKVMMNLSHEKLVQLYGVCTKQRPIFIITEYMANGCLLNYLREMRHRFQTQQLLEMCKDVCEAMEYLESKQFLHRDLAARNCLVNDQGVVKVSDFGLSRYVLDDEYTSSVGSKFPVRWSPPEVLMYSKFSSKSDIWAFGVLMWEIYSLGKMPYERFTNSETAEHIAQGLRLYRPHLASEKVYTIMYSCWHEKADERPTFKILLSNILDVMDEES
Assay [12] concerns the target Serine/threonine-protein kinase PAK 6 (Homo sapiens) (UniProt Q9NQU5). In words: Selectivity interaction (KinomeScan (DiscoverX)) EUB0000595a PAK6. The settings on record: at 10 µM.

Serine/threonine-protein kinase PAK 6 (Homo sapiens), sequence (Q9NQU5 whole entry, looked up): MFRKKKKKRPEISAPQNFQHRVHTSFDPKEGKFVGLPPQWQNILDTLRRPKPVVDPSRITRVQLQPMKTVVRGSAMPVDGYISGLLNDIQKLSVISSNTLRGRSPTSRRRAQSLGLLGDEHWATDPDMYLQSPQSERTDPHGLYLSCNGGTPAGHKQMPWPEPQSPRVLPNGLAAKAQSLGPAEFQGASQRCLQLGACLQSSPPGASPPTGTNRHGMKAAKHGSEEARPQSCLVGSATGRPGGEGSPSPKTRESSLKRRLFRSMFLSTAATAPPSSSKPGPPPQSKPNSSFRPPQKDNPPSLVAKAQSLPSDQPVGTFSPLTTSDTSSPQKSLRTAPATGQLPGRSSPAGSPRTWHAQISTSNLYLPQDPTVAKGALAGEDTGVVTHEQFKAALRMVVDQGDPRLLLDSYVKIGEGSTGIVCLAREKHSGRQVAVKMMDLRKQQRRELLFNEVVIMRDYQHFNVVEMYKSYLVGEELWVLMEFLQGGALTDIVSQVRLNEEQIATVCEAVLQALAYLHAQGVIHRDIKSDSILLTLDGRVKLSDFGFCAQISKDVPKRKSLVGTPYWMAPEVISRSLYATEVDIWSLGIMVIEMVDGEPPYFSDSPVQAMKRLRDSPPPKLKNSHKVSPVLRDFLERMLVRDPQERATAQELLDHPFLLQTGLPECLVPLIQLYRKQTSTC

As to `Cn1cc(-n2cnc3c(NCc4nc5cc(Cl)c(Cl)cc5[nH]4)nc(N4CCOCC4)nc32)cn1`, the % of inhibition in [1] is -265%; in [2] it was -12%. As to `CNC(=O)Nc1ccc(-c2nc(N3CC4CCC(C3)O4)c3cnn(C4CCC5(CC4)OCCO5)c3n2)cc1`, in [3], the % of inhibition worked out at 7%. In addition, the % of control in assay [4] came out at 97%.

As for `Cc1cc([C@@H](C)Nc2ccccc2C(=O)O)c2nc(N3CCOCC3)cc(=O)n2c1` [AZD-6482], the % of control in [5] amounted to 94%. `CN(C)CCOc1ccc(-c2nc(-c3ccncc3)c(-c3ccc4c(c3)CC/C4=N\O)[nH]2)cc1` came in with a % of control in [6] of 6%. Consider `N#Cc1cccc(-c2c[nH]c3ncnc(N4CCOCC4)c23)c1`, for which the % of control in assay [7] turned out to be 100%. In [8], the % of inhibition was -33%. As for `Cc1cc(F)c(C(=O)Nc2cccc(-c3nncn3C(C)C)n2)cc1-n1cnc(C2CC2)c1`, in [9], the % of control turned out to be 100%. `O[C@H]1CC[C@H](Nc2ncc3nc(Nc4c(F)cc(F)cc4F)n([C@H]4CCOC4)c3n2)CC1` registered a % of control in [10] of 100%. Consider `Cc1ccc(-c2ccc3c(ccc4sc5c(c43)NC[C@@H](C)NC5=O)n2)cn1`, for which, in [11], the % of inhibition turned out to be 6%.

As to `COCC(=O)NC/C=C/c1ccc2ncnc(Nc3ccc(Oc4ccc(C)nc4)c(C)c3)c2c1` [CP-724714], in assay [12], the % of control was 87%.
